Laboratory results taken from patent US12474342B2, “Methods for treating cancer and the use of biomarkers as a predictor of clinical sensitivity to therapies” (CELGENE CORPORATION, priority 2016, dated 2025).
Where two headings read alike, the source gives them in different places.

Tests used:
[1] = tested on: XBP1; assay: XBP1 assay in U937 cells; type: cell-based, human; conditions: 0.5 μM TG for 6 hours or 4 μM Compound D for 8, 16, or 32 hours
Description: IRE1, a kinase that activates the XBP1 pathway, was knocked out in U937 cells by CRISPR-mediated gene editing using IRE1 CRISPR constructs. Wild type U937 cells or IRE1 CRISPR knockout U937 cells were treated with 0.5 μM TG for 6 hours or 4 μM Compound D for 8, 16, or 32 hours, then subject to XBP1 assay.

[2] = target: T1, GSPT1 (Homo sapiens, UniProt P15170+Q96SW2); assay: GSPT1 protein reduction, western analysis, AML-193; type: cell-based; design: reduction in GSPT1 protein level was evaluated in human normal PBMCs; endogenous in cells; host or cells: primary PBMCs from normal donors (ID 4328, 4379) and AML patients (ID 11SH, 09P6)
Description: (§1) The time course of the reduction in GSPT1 by Compound D also was studied for up to 48 hours. The progressive degradation of GSPT1 over the course of 1 to 20 hours was evident in the presence of all concentrations of Compound D studied from 3 to 300 nM in HNT-34, HL-60, and ML-2 cells, with little GSPT1 remaining by 20 hours at 100 or 300 nM Compound D in HNT-34 or HL-60 cells (FIG. 34 and FIG. 35C). Time-dependent reduction in GSPT1 was also observed in KG-1 and OCI-AML2 cells at 3 to 1000 nM Compound D, with little GSPT1 remaining in KG-1 cells at 100 to 300 nM at 24 hours or in OCI-AML2 cells at 300 and 1000 nM at 24 hours (FIG. 35D). Loss of GSPT1 occurred more slowly in Kasumi-1, AML-193, and […] cells. […] A positive association (r^2=0.50; […]

[3] = target: T1, GSPT1; assay: GSPT1 protein reduction, western analysis, OCI-AML2; type: cell-based; design: reduction in GSPT1 protein level was evaluated in human normal PBMCs; endogenous in cells; host or cells: primary PBMCs from normal donors (ID 4328, 4379) and AML patients (ID 11SH, 09P6); conditions: for degradation of GSPT1: 100 nM
Description: Thus, Compound D-induced GSPT1 degradation is also CRBN-dependent.
The reduction in the level of GSPT1 protein was concentration-dependent over the range of 3 to 1000 nM in eight of the nine AML cell lines and over the range of 300 to 1000 nM in one relatively insensitive AML cell line. The time course of the reduction in GSPT1 by Compound D also was studied for up to 48 hours. The progressive degradation of GSPT1 over the course of 1 to 20 hours was evident in the presence of all concentrations of Compound D studied from 3 to 300 nM in HNT-34, HL-60, and ML-2 cells, with little GSPT1 remaining by 20 hours at 100 or 300 nM Compound D in HNT-34 or HL-60 cells (FIG. 34 and FIG. 35C). Time-dependent reduction in GSPT1 was also observed in KG-1 and OCI-AML2 cells at 3 to 1000 nM Compound D, with little GSPT1 remaining in KG-1 cells at 100 to 300 nM at 24 hours or in OCI-AML2 cells at 300 and 1000 nM at 24 hours (FIG. 35D). Loss of GSPT1 occurred more slowly in Kasumi-1, AML-193, and F36-P cells.
Compound D-mediated GSPT1 reduction at 8 hours was compared to induction of caspase 3/7 activation (apoptosis) at 12, 24, and 48 hour time points in these nine AML cell lines. […] A positive association (r^2=0.50; R=0.71; p value=4.86E-002) was observed between the level of GSPT1 reduction and apoptosis induction in the AML cell panel (FIG. 36), with >90% GSPT1 reduction correlating with induction of apoptosis.

[4] = target: T1, GSPT1; assay: GSPT1 protein reduction, western analysis, ML-2; type: cell-based; design: reduction in GSPT1 protein level was evaluated in human normal PBMCs; endogenous in cells; host or cells: primary PBMCs from normal donors (ID 4328, 4379) and AML patients (ID 11SH, 09P6)
Description: as §1

[5] = tested on: proteins in the UPR pathway, PARP; assay: UPR pathway proteins and PARP cleavage, western blot, healthy PBMCs; type: cell-based, human; conditions: 10 nM Compound D
[6] = tested on: F36-P cells; assay: Apoptosis (caspase 3/7 activation), F36-P; type: cell-based, human
[7] = tested on: KG-1 cells; assay: Anti-proliferation CTG assay, KG-1; type: cell-based, human
Description: The effect of depletion of GSPT1 on the anti-proliferative effect of compound Compound D and Compound E was also determined in human acute myelogenous leukemia cell lines AML and KG1. […]

[8] = tested on: p-eIF2α; assay: p-eIF2α immunoblot, OCI-AML2; type: cell-based, human; conditions: 300 μg/ml G418 or 200 nM Compound D
Description: It is known that amino acid starvation causes GCN2 activation, which phosphorylates eIF2α. Because GSPT1 mediates normal translation termination, it is hypothesized that depletion of GSPT1 by Compound D may cause readthrough of stop codons. Whether the translational readthrough induced by Compound D contributes to the increased levels of p-eIF2α was investigated. OCI-AML2 cells stably expressing the Fluc/Nluc-G36A readthrough reporter were treated with 300 μg/ml G418 or 200 nM Compound D for 2, 4, 6, 8, 10, 12, or 16 hours. The levels of p-eIF2α were measured by immunoblot analysis. AML2 readthrough assay was conducted to measure the readthrough reporter.

T1 sequence (P15170 1-637 isoform P15170-3): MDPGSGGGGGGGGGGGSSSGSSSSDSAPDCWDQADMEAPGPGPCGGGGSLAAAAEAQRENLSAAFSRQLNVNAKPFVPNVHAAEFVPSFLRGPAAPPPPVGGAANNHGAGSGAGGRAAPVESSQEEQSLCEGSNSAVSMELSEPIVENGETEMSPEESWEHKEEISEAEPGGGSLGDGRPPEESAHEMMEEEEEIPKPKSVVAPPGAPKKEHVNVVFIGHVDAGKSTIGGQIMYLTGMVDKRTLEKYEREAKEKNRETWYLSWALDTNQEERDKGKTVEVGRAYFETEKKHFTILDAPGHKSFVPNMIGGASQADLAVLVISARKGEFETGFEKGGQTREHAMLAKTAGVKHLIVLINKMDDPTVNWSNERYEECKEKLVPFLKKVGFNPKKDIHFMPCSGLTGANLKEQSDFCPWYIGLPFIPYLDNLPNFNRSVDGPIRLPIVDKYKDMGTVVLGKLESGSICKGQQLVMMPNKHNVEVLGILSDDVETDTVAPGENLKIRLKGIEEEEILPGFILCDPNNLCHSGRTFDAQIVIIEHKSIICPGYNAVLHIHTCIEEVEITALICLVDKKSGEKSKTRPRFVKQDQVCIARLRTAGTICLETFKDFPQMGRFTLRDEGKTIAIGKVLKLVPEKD
T1 sequence (Q96SW2 whole entry): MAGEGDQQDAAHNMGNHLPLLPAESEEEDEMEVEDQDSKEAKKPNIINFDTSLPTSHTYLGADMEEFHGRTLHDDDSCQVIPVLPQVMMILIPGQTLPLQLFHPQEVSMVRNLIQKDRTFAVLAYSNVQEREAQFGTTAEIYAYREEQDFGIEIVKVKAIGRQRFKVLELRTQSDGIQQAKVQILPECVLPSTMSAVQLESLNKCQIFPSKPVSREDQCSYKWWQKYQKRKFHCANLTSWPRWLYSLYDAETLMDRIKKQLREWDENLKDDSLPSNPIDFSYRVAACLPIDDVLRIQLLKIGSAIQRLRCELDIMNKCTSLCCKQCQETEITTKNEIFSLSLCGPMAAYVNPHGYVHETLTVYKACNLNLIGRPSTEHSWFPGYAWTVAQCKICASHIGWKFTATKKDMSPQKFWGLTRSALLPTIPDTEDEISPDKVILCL
T1 sequence (Q16531 whole entry partner): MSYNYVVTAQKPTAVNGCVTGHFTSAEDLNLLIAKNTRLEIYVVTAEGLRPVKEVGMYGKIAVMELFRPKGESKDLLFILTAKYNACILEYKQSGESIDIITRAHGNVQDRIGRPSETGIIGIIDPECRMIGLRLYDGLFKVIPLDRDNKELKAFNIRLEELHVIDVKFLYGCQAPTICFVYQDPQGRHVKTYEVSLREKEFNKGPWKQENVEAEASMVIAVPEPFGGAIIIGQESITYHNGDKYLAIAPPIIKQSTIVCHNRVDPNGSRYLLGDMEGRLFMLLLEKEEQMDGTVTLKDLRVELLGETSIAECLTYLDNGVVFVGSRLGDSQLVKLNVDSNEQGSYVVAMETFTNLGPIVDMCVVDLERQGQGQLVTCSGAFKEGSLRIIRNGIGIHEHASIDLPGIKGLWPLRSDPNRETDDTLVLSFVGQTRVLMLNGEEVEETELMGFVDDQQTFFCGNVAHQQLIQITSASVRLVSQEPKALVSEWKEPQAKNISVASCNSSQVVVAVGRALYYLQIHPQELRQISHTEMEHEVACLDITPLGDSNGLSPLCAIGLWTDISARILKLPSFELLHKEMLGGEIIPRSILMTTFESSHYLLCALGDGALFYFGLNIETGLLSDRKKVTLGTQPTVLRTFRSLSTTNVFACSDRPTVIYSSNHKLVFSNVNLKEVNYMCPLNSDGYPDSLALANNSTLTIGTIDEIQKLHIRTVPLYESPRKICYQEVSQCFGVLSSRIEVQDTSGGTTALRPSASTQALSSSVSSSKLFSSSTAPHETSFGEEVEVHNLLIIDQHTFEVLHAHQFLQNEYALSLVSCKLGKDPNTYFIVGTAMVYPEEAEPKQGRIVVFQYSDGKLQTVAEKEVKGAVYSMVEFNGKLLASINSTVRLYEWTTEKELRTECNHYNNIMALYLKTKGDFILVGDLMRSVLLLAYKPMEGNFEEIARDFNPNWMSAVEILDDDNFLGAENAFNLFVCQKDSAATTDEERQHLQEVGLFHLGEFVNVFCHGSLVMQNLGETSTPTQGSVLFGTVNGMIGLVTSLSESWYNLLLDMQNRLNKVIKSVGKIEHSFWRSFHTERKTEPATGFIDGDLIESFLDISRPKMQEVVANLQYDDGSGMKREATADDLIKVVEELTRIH

## O=C1CCC(N2Cc3cc(CNC(=O)C(F)(F)c4ccc(Cl)cc4)ccc3C2=O)C(=O)N1 (stereo not shown) [Compound D, 2-(4-chlorophenyl)-N-((2-(2,6-dioxopiperidin-3-yl)-1-oxoisoindolin-5-yl)methyl)-2,2-difluoroacetamide]
[1]
  XBP1 pathway: activated the XBP1 pathway
[2]; AML-193, 100 nM, 8 hr
  Percent Reduction at 100 nM Compound D GSPTI (8 hr): 49%
[2]; AML-193, 300 nM Compound D, 8 hours
  GSPT1 reduction: 61%
[3]; CRBN -/- OCI-AML2 cells
  degradation of GSPT1: could not induce degradation
[3]; OC-AML2, 100 nM Compound D, 8 hours
  reduction of GSPT1 protein levels: greater than 800
[3]; OCI-AML2, 100 nM, 8 hr
  Percent Reduction at 100 nM Compound D GSPTI (8 hr): 89%
[3]; parental OCI-AML2 cells
  degradation of GSPT1: induced degradation
[4]; ML-2, 100 nM Compound D, 8 hours
  reduction of GSPT1 protein levels: greater than 800
[4]; ML-2, 100 nM, 8 hr
  Percent Reduction at 100 nM Compound D GSPTI (8 hr): 82%
[5]
  induction of proteins in the UPR pathway or cleavage of PARP: did not occur
[6]; 12 hr
  Average Percent Increase in Apoptosis at 123 nM Compound D, Apoptosis (12 hr): 0%
[6]; 24 hr
  Average Percent Increase in Apoptosis at 123 nM Compound D, Apoptosis (24 hr): 2%
[6]; 48 hr
  Average Percent Increase in Apoptosis at 123 nM Compound D, Apoptosis (48 hr): 6%
[7]; Homo sapiens, KG-1, KG-1, Compound F 0 μM, read-out: Inhibition of Cell Proliferation by Compound D (CTG assay) IC50
  IC50: 10 nM
[7]; Homo sapiens, KG-1, KG-1, Compound F 30 μM, read-out: Inhibition of Cell Proliferation by Compound D (CTG assay) IC50
  IC50: 1500 nM
[7]; Homo sapiens, KG-1, 72-hour CTG assay, read-out: IC50 of the anti-proliferative effect
  IC50: 15 nM
[7]; KG1 parental or control shRNA cells, 0.0001 μM to 1 μM, two days
  cell proliferation (CellTiter-Glo): exhibited anti-proliferative effect, particularly at high concentration
[7]; read-out: Inhibition of Cell Proliferation by Compound D (CTG assay) IC50
  IC50: 6800 nM
[8]
  levels of p-eIF2α: increased the levels
